The text below walks through data of US9783531B2, “Thiazole-substituted aminoheteroaryls as spleen tyrosine kinase inhibitors” (Merck Sharp & Dohme Corp., priority 2013, dated 2017).

Each structure is given as a SMILES string.

System in one data set: not given
Assay: not given
The conditions noted are these: phase II clinical trial, allergic rhinitis; cited from earlier work.
Regarding `Oc1cccc(Nc2ncc(F)c(Nc3cccc(O)c3)n2)c1` [Example R112], the efficacy versus placebo entry is “lack of efficacy versus placebo”.

System in a further data set: not given
Assay: not given
The conditions noted are these: dosed intranasally, phase I/II study, allergic rhinitis; cited from earlier work.
With `Oc1cccc(Nc2ncc(F)c(Nc3cccc(O)c3)n2)c1` [Example R112], the “PGD2 (immune mediator)” value is recorded as “statistically significant decrease in PGD2” and the clinical safety result was “safe across a range of indicators”.

The target of the next data set is T1, recombinant human GST-SYK (Homo sapiens, UniProt P43405).
T1 construct: purchased Carna Biosciences 08-176
In words: Homogeneous Time-Resolved Fluorescence (HTRF) assay for the recombinant human Syk enzyme. It counts as biochemical. To be noted: recombinant human GST-SYK 5 pM, ATP 25 μM, read-out: rhSyk. The protocol: Homogeneous Time-Resolved Fluorescence (HTRF) Assay for the Recombinant Human Syk Enzyme
A recombinant GST-hSYK fusion protein was used to measure potency of compounds to inhibit human Syk activity. The recombinant human GST-SYK (Carna Biosciences #08-176) (5 pM final concentration) was incubated with various concentrations of the inhibitor diluted in DMSO (0.1% final concentration) for 10 minutes at room temperature in 15 mM Tris-HCl (pH 7.5), 0.01% tween 20, 2 mM DTT in 384 well plate format. To initiate the reaction the biotinylated substrate peptide (250 nM final concentration) that contains the phosphorylation site for Syk was added with magnesium (5 mM final concentration) and ATP (25 μM final concentration). Final volume of the reaction was 10 μL. Phosphorylation of the peptide was allowed to proceed for 45′ at room temperature. To quench the reaction and detect the phosphorylated product, 2 nM of a Europium-anti-phosphotyrosine antibody (Perkin Elmer #AD0161) and 70 nM SA-APC (Perkin-Elmer #CR130-100) were added together in 15 mM Tris pH 7.5, 40 mM EDTA, 0.01% tween 20. Final volume of the quenching solution was 10 μL.
The resulting HTRF signal was measured after 30 minutes on an EnVision (Perkin-Elmer) reader using a time-resolved fluorescence protocol. Table A below lists activities as IC50 values (nM) for representative compounds of the invention.
For orientation: TR-FRET usually uses a lanthanide donor and a delayed reading to cut background.
For `Cc1cc(Nc2ncn(C3CCC3)n2)cc(-c2cnc([C@]3(O)CC[C@@H](C(=O)O)C(C)(C)C3)s2)c1` (single isomer, unassigned) [Example 2.24, (1R,4S or 1S,4R)-4-(5-{3-[(1-cyclobutyl-1H-1,2,4-triazol-3-yl)amino]-5-methylphenyl}-1,3-thiazol-2-yl)-4-hydroxy-2,2-dimethylcyclohexanecarboxylic acid], the IC50 turned out to be 0.388 nM.
As to `Cc1cc(Nc2ncn(C3CCC3)n2)cc(-c2cnc([C@]3(O)CC[C@@H](C(=O)O)C(C)(C)C3)s2)c1` (single isomer, unassigned) [Example 2.25, (1R,4S or 1S,4R)-4-(5-{3-[(1-cyclobutyl-1H-1,2,4-triazol-3-yl)amino]-5-methylphenyl}-1,3-thiazol-2-yl)-4-hydroxy-2,2-dimethylcyclohexanecarboxylic acid], the IC50 was 2.54 nM.
Still for that read-out and setting: the result for `Cc1cc(Nc2ncn(C)n2)cc(-c2cnc(C3(O)CCC(C(=O)OC(C)(C)C)CC3)s2)c1` (centres unmarked) [Example 1.1, tert-butyl 4-hydroxy-4-(5-(3-methyl-5-((1-methyl-1H-1,2,4-triazol-3-yl)amino)phenyl)thiazol-2-yl)cyclohexanecarboxylate] reads 1160 nM; that for `Cc1cc(Nc2ncn(C)n2)cc(-c2cnc(C3(O)CCC(C(=O)O)CC3)s2)c1` (centres unmarked) [Example 1.2, 4-hydroxy-4-(5-(3-methyl-5-((1-methyl-1H-1,2,4-triazol-3-yl)amino)phenyl)thiazol-2-yl)cyclohexanecarboxylic acid], 56.5 nM.
Same read-out and setting: the result for `CCn1cnc(Nc2cc(C)cc(-c3cnc(C4(O)CCC(C(=O)OC(C)(C)C)CC4)s3)c2)n1` (centres unmarked) [Example 2.1, tert-butyl 4-(5-(3-((1-ethyl-1H-1,2,4-triazol-3-yl)amino)-5-methylphenyl)thiazol-2-yl)-4-hydroxycyclohexanecarboxylate] reads 1110 nM.
In the case of `CCn1cnc(Nc2cc(C)cc(-c3cnc(C4(O)CCC(C(=O)O)CC4)s3)c2)n1` (centres unmarked) [Example 2.2, 4-(5-(3-((1-ethyl-1H-1,2,4-triazol-3-yl)amino)-5-methylphenyl)thiazol-2-yl)-4-hydroxycyclohexanecarboxylic acid], the IC50 was determined as 10.1 nM.
With `CCn1cnc(Nc2cc(C)cc(-c3cnc([C@]4(O)CC[C@@H](C(N)=O)CC4)s3)c2)n1` [Example 2.3, 4-(5-(3-((1-Ethyl-1H-1,2,4-triazol-3-yl)amino)-5-methylphenyl)thiazol-2-yl)-4-hydroxycyclohexanecarboxamide], the IC50 was 49.6 nM.
Regarding `Cc1cc(Nc2cc[nH]n2)cc(-c2cnc(C3(O)CCC3)s2)c1` [Example 2.4, 1-{5-[3-methyl-5-(1H-pyrazol-3-ylamino)phenyl]-1,3-thiazol-2-yl}cyclobutanol], the IC50 is 1140 nM.
Same read-out and setting: the same measure for `Cc1cc(Nc2cc(C)[nH]n2)cc(-c2cnc(C3(O)CCC3)s2)c1` [Example 2.5, 1-(5-{3-methyl-5-[(5-methyl-1H-pyrazol-3-yl)amino]phenyl}-1,3-thiazol-2-yl)cyclobutanol]: 941 nM.
Same read-out and setting: the result for `Cc1cc(Nc2cc(C3CC3)[nH]n2)cc(-c2cnc(C3(O)CCC3)s2)c1` [Example 2.6, 1-(5-{3-[(5-cyclopropyl-1H-pyrazol-3-yl)amino]-5-methylphenyl}-1,3-thiazol-2-yl)cyclobutanol] reads 181 nM; that for `Cc1cc(Nc2cc(C3CCC3)[nH]n2)cc(-c2cnc(C3(O)CCC3)s2)c1` [Example 2.7, 1-(5-{3-[(5-cyclobutyl-1H-pyrazol-3-yl)amino]-5-methylphenyl}-1,3-thiazol-2-yl)cyclobutanol], 274 nM; that for `Cc1cc(Nc2n[nH]c(C)n2)cc(-c2cnc(C3(O)CCC3)s2)c1` [Example 2.9, 1-(5-{3-methyl-5-[(5-methyl-1H-1,2,4-triazol-3-yl)amino]phenyl}-1,3-thiazol-2-yl)cyclobutanol], 1300 nM.
The same measure, in the same setting: the result for `Cc1cc(Nc2ncn(C)n2)cc(-c2cnc(C3(O)CCC3)s2)c1` [Example 2.10, 1-(5-{3-methyl-5-[(1-methyl-1H-1,2,4-triazol-3-yl)amino]phenyl}-1,3-thiazol-2-yl)cyclobutanol] reads 188 nM; that for `Cc1cc(Nc2ncn(C(C)C)n2)cc(-c2cnc(C3(O)CCC3)s2)c1` [Example 2.11, 1-[5-(3-methyl-5-{[1-(1-methylethyl)-1H-1,2,4-triazol-3-yl]amino}phenyl)-1,3-thiazol-2-yl]cyclobutanol], 49.2 nM.
With `CCn1cnc(Nc2cc(C)cc(-c3cnc(C4(O)CCC4)s3)c2)n1` [Example 2.12, 1-(5-{3-[(1-ethyl-1H-1,2,4-triazol-3-yl)amino]-5-methylphenyl}-1,3-thiazol-2-yl)cyclobutanol], the IC50 worked out at 49.1 nM.
The same measure, in the same setting: the result for `CCCn1cnc(Nc2cc(C)cc(-c3cnc(C4(O)CCC4)s3)c2)n1` [Example 2.13, 1-(5-{3-methyl-5-[(1-propyl-1H-1,2,4-triazol-3-yl)amino]phenyl}-1,3-thiazol-2-yl)cyclobutanol] reads 96.7 nM.
On the same count and under the same terms, the result for `Cc1cc(Nc2ncn(-c3ccccc3)n2)cc(-c2cnc(C3(O)CCC3)s2)c1` [Example 2.14, 1-(5-{3-methyl-5-[(1-phenyl-1H-1,2,4-triazol-3-yl)amino]phenyl}-1,3-thiazol-2-yl)cyclobutanol] reads 365 nM; that for `Cc1cc(Nc2ncn(C(=O)N(C)C)n2)cc(-c2cnc(C3(O)CCC3)s2)c1` [Example 2.15, 3-({3-[2-(1-hydroxycyclobutyl)-1,3-thiazol-5-yl]-5-methylphenyl}amino)-N,N-dimethyl-1H-1,2,4-triazole-1-carboxamide], 3860 nM; that for `Cc1cc(Nc2ncn(C3CCCCC3)n2)cc(-c2cnc(C3(O)CCC3)s2)c1` [Example 2.16, 1-(5-{3-[(1-cyclohexyl-1H-1,2,4-triazol-3-yl)amino]-5-methylphenyl}-1,3-thiazol-2-yl)cyclobutanol], 115 nM.
Still for that read-out and setting: the result for `Cc1cc(Nc2ncn(C3CCC3)n2)cc(-c2cnc(C3(O)CCC3)s2)c1` [Example 2.17, 1-(5-{3-[(1-cyclobutyl-1H-1,2,4-triazol-3-yl)amino]-5-methylphenyl}-1,3-thiazol-2-yl)cyclobutanol] reads 7.41 nM.
Regarding `Cc1cc(Nc2ncnn2C2CCC2)cc(-c2cnc(C3(O)CCC3)s2)c1` [Example 2.18, 1-(5-{3-[(1-cyclobutyl-1H-1,2,4-triazol-5-yl)amino]-5-methylphenyl}-1,3-thiazol-2-yl)cyclobutanol], the IC50 is 7710 nM.
Take `Cc1cc(Nc2ncn(Cc3ccccc3)n2)cc(-c2cnc(C3(O)CCC3)s2)c1` [Example 2.19, 1-(5-{3-[(1-benzyl-1H-1,2,4-triazol-3-yl)amino]-5-methylphenyl}-1,3-thiazol-2-yl)cyclobutanol]: the IC50 came to 325 nM.
With `Cc1cc(Nc2ncn(C(C)C)n2)cc(-c2cnc([C@]3(O)CC[C@@H](C(=O)OC(C)(C)C)CC3)s2)c1` [Example 2.20, tert-butyl cis-4-hydroxy-4-[5-(3-methyl-5-{[1-(1-methylethyl)-1H-1,2,4-triazol-3-yl]amino}phenyl)-1,3-thiazol-2-yl]cyclohexanecarboxylate], the IC50 worked out at 1000 nM.
On the same count and under the same terms, the same measure for `Cc1cc(Nc2ncnn2C2CCC2)cc(-c2cnc([C@]3(O)CC[C@@H](C(=O)O)CC3)s2)c1` [Example 2.21, cis-4-(5-{3-[(1-cyclobutyl-1H-1,2,4-triazol-5-yl)amino]-5-methylphenyl}-1,3-thiazol-2-yl)-4-hydroxycyclohexane-carboxylic acid]: 3310 nM; for `Cc1cc(Nc2ncn(C(C)C)n2)cc(-c2cnc([C@]3(O)CC[C@@H](C(=O)O)CC3)s2)c1` [Example 2.22, cis-4-hydroxy-4-[5-(3-methyl-5-{[1-(1-methylethyl)-1H-1,2,4-triazol-3-yl]amino}phenyl)-1,3-thiazol-2-yl]cyclohexanecarboxylic acid]: 9.94 nM; for `Cc1cc(Nc2ncn(C(C)C)n2)cc(-c2cnc([C@]3(O)CC[C@@H](C(N)=O)CC3)s2)c1` [Example 2.23, cis-4-hydroxy-4-[5-(3-methyl-5-{[1-(1-methylethyl)-1H-1,2,4-triazol-3-yl]amino}phenyl)-1,3-thiazol-2-yl]cyclohexanecarboxamide]: 36.8 nM.
